Source: US9376418B2, “Substituted pyridine spleen tyrosine kinase (SYK) inhibitors” (Merck Sharp & Dohme Corp., priority 2012, dated 2016)

Target: T1, recombinant human GST-SYK (Homo sapiens, UniProt P43405)
T1 construct: purchased Carna Biosciences 08-176
Experiment: Homogeneous Time-Resolved Fluorescence (HTRF) assay for the recombinant human Syk enzyme
Type: biochemical
Details: HTRF assay, recombinant human GST-SYK; IC50 given as class symbols; read-out: rhSYK Activity
How it was run: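 Phosphotyrosine product from a biotinylated Syk substrate peptide was detected by HTRF (europium antibody/SA-APC, read after 30 min) following a 45-minute room-temperature reaction at 25 μM ATP, with […] preincubated 10 minutes with inhibitor.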

| IC50 [nM] | Compound |
| --- | --- |
| < 100 | Cc1cc(Nc2nccc(C(F)(F)F)n2)cc(-c2ccc(N3CC(C4CCCC(C(=O)O)C4)C3)nc2)c1 (stereo not shown) [Example 7.146, 3-{1-[5-(3-methyl-5-{[4-(trifluoromethyl)pyrimidin-2-yl]amino}phenyl)pyridin-2-yl]azetidin-3-yl}cyclohexanecarboxylic acid] |
| < 100 | Cc1cc(Nc2nccc(C(F)(F)F)n2)cc(-c2ccc(N3CCC([C@@H]4CCCC[C@H]4C(=O)O)CC3)nc2)c1 [Example 7.147, (1R,2S)-2-{1-[5-(3-methyl-5-{[4-(trifluoromethyl)pyrimidin-2-yl]amino}phenyl)pyridin-2-yl]piperidin-4-yl}cyclohexanecarboxylic acid] |
| < 100 | Cc1cc(Nc2nccc(C(F)(F)F)n2)cc(-c2ccc(NCC3CCC(C(=O)O)CC3)nc2)c1 (stereo not shown) [Example 7.148, 4-({[5-(3-methyl-5-{[4-(trifluoromethyl)pyrimidin-2-yl]amino}phenyl)pyridin-2-yl]amino}methyl)cyclohexanecarboxylic acid] |
| < 100 | Cc1cc(Nc2nccc(C(F)(F)F)n2)cc(-c2ccc(N3CCC[C@@H](C(=O)N4CCC[C@@H](C(=O)O)C4)C3)nc2)c1 [Example 7.149, (3R)-1-({(3R)-1-[5-(3-methyl-5-{[4-(trifluoromethyl)pyrimidin-2-yl]amino}phenyl)pyridin-2-yl]piperidin-3-yl}carbonyl)piperidine-3-carboxylic acid] |
| < 100 | Cc1cc(Nc2nccc(C(F)(F)F)n2)cc(-c2ccc(N3CCC[C@@H](C(=O)N4CCC[C@H](C(=O)O)C4)C3)nc2)c1 [Example 7.150, (3S)-1-({(3R)-1-[5-(3-methyl-5-{[4-(trifluoromethyl)pyrimidin-2-yl]amino}phenyl)pyridin-2-yl]piperidin-3-yl}carbonyl)piperidine-3-carboxylic acid] |
| < 100 | Cc1cc(Nc2nccc(C(F)(F)F)n2)cc(-c2ccc(N3CCC(N4CC(C(=O)O)CC4=O)CC3)nc2)c1 (stereo not shown) [Example 7.151, 1-{1-[5-(3-methyl-5-{[4-(trifluoromethyl)pyrimidin-2-yl]amino}phenyl)pyridin-2-yl]piperidin-4-yl}-5-oxopyrrolidine-3-carboxylic acid] |
| < 100 | Cc1cc(Nc2ncc(Br)c(C(F)(F)F)n2)cc(-c2ccc(NC(C)(C)C(=O)O)nc2)c1 [Example 7.152] |
| < 100 | Cc1cc(Nc2nccc(C(F)(F)F)n2)cc(-c2ccc(N(C)CC(N)=O)nc2)c1 [Example 7.153, N~2~-methyl-N~2~-[5-(3-methyl-5-{[4-(trifluoromethyl)pyrimidin-2-yl]amino}phenyl)pyridin-2-yl]glycinamide] |
| < 100 | Cc1cc(Nc2nccc(C(F)(F)F)n2)cc(-c2ccc(N[C@H](C)C(=O)O)nc2)c1 [Example 7.154, N-[5-(3-methyl-5-{[4-(trifluoromethyl)pyrimidin-2-yl]amino}phenyl)pyridin-2-yl]-D-alanine] |
| < 100 | Cc1cc(Nc2nccc(C(F)(F)F)n2)cc(-c2ccc(N[C@@H](Cc3ccccc3)C(=O)O)nc2)c1 [Example 7.155, N-[5-(3-methyl-5-{[4-(trifluoromethyl)pyrimidin-2-yl]amino}phenyl)pyridin-2-yl]-L-phenylalanine] |
| < 100 | Cc1cc(Nc2nccc(C(F)(F)F)n2)cc(-c2ccc(NC3CCNC3=O)nc2)c1 (stereo not shown) [Example 7.157, 3-{[5-(3-methyl-5-{[4-(trifluoromethyl)pyrimidin-2-yl]amino}phenyl)pyridin-2-yl]amino}pyrrolidin-2-one] |
| < 100 | Cc1cc(Nc2ncc(F)c(C3CC3)n2)cc(-c2ccc(NC3CCNC3=O)nc2)c1 (stereo not shown) [Example 7.158, 3-[(5-{3-[(4-cyclopropyl-5-fluoropyrimidin-2-yl)amino]-5-methylphenyl}pyridin-2-yl)amino]pyrrolidin-2-one] |
| < 100 | Cc1cc(Nc2ncc(F)c(C3CC3)n2)cc(-c2ccc(NC(C)(C)C(=O)O)nc2)c1 [Example 7.159, N-(5-{3-[(4-cyclopropyl-5-fluoropyrimidin-2-yl)amino]-5-methylphenyl}pyridin-2-yl)-2-methylalanine] |
| < 100 | O=C(O)[C@@H]1CCN1c1ccc(-c2cc(F)cc(Nc3ncc(F)c(C4CC4)n3)c2)cn1 [Example 7.160, (2S)-1-(5-{3-[(4-cyclopropyl-5-fluoropyrimidin-2-yl)amino]-5-fluorophenyl}pyridin-2-yl)azetidine-2-carboxylic acid] |
| < 100 | Cc1cc(Nc2ncc(F)c(C3CC3)n2)cc(-c2ccc(N3CC[C@H]3C(=O)O)nc2)c1 [Example 7.161, (2S)-1-(5-{3-[(4-cyclopropyl-5-fluoropyrimidin-2-yl)amino]-5-methylphenyl}pyridin-2-yl)azetidine-2-carboxylic acid] |
| < 100 | COC(=O)CS(=O)(=O)Nc1ccc(-c2cc(C)cc(Nc3nccc(C(F)(F)F)n3)c2)cn1 [Example 8.1, Methyl {[5-(3-methyl-5-{[4-(trifluoromethyl)pyrimidin-2-yl]amino}phenyl)pyridin-2-yl]sulfamoyl}acetate] |
| < 100 | Cc1cc(Nc2nccc(C(F)(F)F)n2)cc(-c2ccc(NS(=O)(=O)CC(=O)O)nc2)c1 [Example 8.2, {[5-(3-Methyl-5-{[4-(trifluoromethyl)pyrimidin-2-yl]amino}phenyl)pyridin-2-yl]sulfamoyl}acetic acid] |
| < 100 | COC(=O)CC(=O)Nc1ccc(-c2cc(C)cc(Nc3nccc(C(F)(F)F)n3)c2)cn1 [Example 8.3, methyl 3-{[5-(3-methyl-5-{[4-(trifluoromethyl)pyrimidin-2-yl]amino}phenyl)pyridin-2-yl]amino}-3-oxopropanoate] |
| < 100 | Cc1cc(Nc2nccc(C(F)(F)F)n2)cc(-c2ccc(NC(=O)CC(=O)O)nc2)c1 [Example 8.4, 3-{[5-(3-methyl-5-{[4-(trifluoromethyl)pyrimidin-2-yl]amino}phenyl)pyridin-2-yl]amino}-3-oxopropanoic acid] |
| < 100 | Cc1cc(Nc2nccc(C(F)(F)F)n2)cc(-c2ccc(C(C)(O)CO)nc2)c1 (stereo not shown) [Example 9.1, 2-[5-(3-Methyl-5-{[4-(trifluoromethyl)pyrimidin-2-yl]amino}phenyl)pyridin-2-yl]propane-1,2-diol] |
| < 100 | Cc1cc(Nc2nccc(C(F)(F)F)n2)cc(-c2ccnc(C3(O)CCC(=O)CC3)c2)c1 [Example 9.2, 4-Hydroxy-4-[4-(3-methyl-5-{[4-(trifluoromethyl)pyrimidin-2-yl]amino}phenyl)pyridin-2-yl]cyclohexanone] |
| < 100 | Cc1cc(Nc2nccc(C(F)(F)F)n2)cc(-c2ccnc([C@]3(O)CC[C@@H](O)CC3)c2)c1 [Example 9.3, Cis-1-[4-(3-methyl-5-{[4-(trifluoromethyl)pyrimidin-2-yl]amino}phenyl)pyridine-2-yl]cyclohexane-1,4-diol] |
| < 100 | Cc1cc(Nc2nccc(C(F)(F)F)n2)cc(-c2cncc(C3(O)CCC(C(=O)O)C3)c2)c1 (stereo not shown) [Example 9.5, 3-Hydroxy-3-[5-(3-methyl-5-{[4-(trifluoromethyl)pyrimidin-2-yl]amino}phenyl)pyridin-3-yl]cyclopentanecarboxylic acid] |
| < 100 | Cc1cc(Nc2nccc(C3CC3)n2)cc(-c2ccc(C(C)(O)[C@H]3CC[C@H](C(=O)O)CC3)nc2)c1 (stereo partly drawn) [Example 9.6, trans-4-(1-(5-(3-(4-cyclopropylpyrimidin-2-ylamino)-5-methylphenyl)pyridin-2-yl)-1-hydroxyethyl)cyclohexanecarboxylic acid] |

Same assay, conditions: recombinant GST-hSYK, 25 μM ATP, HTRF; read-out: IC50 (inhibition of human Syk activity)

| IC50 [nM] | Compound |
| --- | --- |
| 17.9 | Cc1cc(Nc2nccc(C(F)(F)F)n2)cc(-c2ccc(C(C)(O)CO)nc2)c1 (stereo not shown) [Example 9.1, 2-[5-(3-Methyl-5-{[4-(trifluoromethyl)pyrimidin-2-yl]amino}phenyl)pyridin-2-yl]propane-1,2-diol] |
